System: Planarians (Dugesia japonica)
Assay: Animal cell regeneration experiment (ii): head (eye) regeneration of cut planarians after immersion in Azakenpaullone
Assay type: in vivo
Details: 0.5 μM, 24 h immersion; for individuals died and disappeared before regeneration: among the total nine individuals
Experimental: Hereinafter, the present invention will be specifically described using Examples. In the following Examples 1 and 2, regeneration experiment was conducted using Planarians (Dugesia japonica) as one kind of flatworm.
Thereafter, the planarians belonging to Groups A and B were respectively placed in petri dishes, so that the amount of water per planarian was 2.5 mL, in a thermostat bath set to a temperature of 13° C. The planarians were grown for 14 days ([…]) under a condition and in an environment such that water was changed every three days. The respective regeneration states of their heads in this period were observed over time with an optical microscope every 24 hours after cutting to evaluate the degree of regeneration after 14 days had elapsed based on the following three references (see Teresa Adel et al., Dev Genes Evol (2008) 218:89-103, as for the references for the degree of regeneration). The planarians ranked as “regeneration degree 2” or “regeneration degree 3” were determined to “have been regenerated,” and those ranked as “regeneration degree 1” were determined to “be unregenerated.” The number of planarians determined to “have been regenerated” was counted over time, and the result thereof is indicated in Table 1.
“Regeneration degree 1”: Eyes being developed cannot be identified.
“Regeneration degree 2”: Eyes being developed can be identified.
“Regeneration degree 3”: Eyes can be identified.
Firstly, planarians having an equivalent size were selected, and divided into Group C (n=9) and Group D (n=9). For the planarians belonging to Group C, the living bodies were cut near the center at a timing in the same time zone as that for Group A in Example 1 (namely, immediately after the RGA turned downward from the maximum value immediately before) (see FIG. 2).
For the planarians (n=9) belonging to Group D, the living bodies were cut near the center at a timing in the same time zone as that for Group B in Example 1 (namely, immediately after the RGA turned upward from the minimum value immediately before) (see FIG. 2).
Thereafter, the planarians belonging to Groups C and D were respectively immersed for 24 hours in a solution of Azakenpaullone that is a drug suppressing normal differentiation at a concentration of 0.5 μM, then placed in petri dishes, so that the amount of water per planarian was 2.5 mL, in a thermostat bath set to a temperature of 13° C., and were grown for 15 days ([…]) under a condition and in an environment such that water was changed every three days. The respective regeneration states of their heads were observed over time with an optical microscope every 24 hours after cutting to evaluate the degree of regeneration after 15 days had elapsed in the same manner as in Example 1. At this time, the planarians were determined as to whether they “had been regenerated” or “were unregenerated” in the same manner as in Example 1. The number of planarians determined to “have been regenerated” was counted over time, and the result thereof is indicated in Table 2.
The treating method using Azakenpaullone was referred to a description of Teresa Adel et al., Dev Genes Evol 218(2008) 89-103.

For `O=C1Cc2c([nH]c3ccc(Br)cc23)-c2ncccc2N1` [Azakenpaullone], the “Number of planarians determined to have been regenerated (cumulative)” value (shortened to “Number of planarians determined”) (Group C (n=9), cut immediately after RGA turned downward from maximum, 0 h after cutting) was 0, the “Number of planarians determined” value (Group C (n=9), cut immediately after RGA turned downward from maximum, 24 h after cutting) was 0 and the “Number of planarians determined” value (Group C (n=9), cut immediately after RGA turned downward from maximum, 48 h after cutting) was 0. The “Number of planarians determined” value (Group C (n=9), cut immediately after RGA turned downward from maximum, 72 h after cutting) was 0, the “Number of planarians determined” value (Group C (n=9), cut immediately after RGA turned downward from maximum, 96 h after cutting) was 0 and the “Number of planarians determined” value (Group C (n=9), cut immediately after RGA turned downward from maximum, 120 h after cutting) was 0. The “Number of planarians determined” value (Group C (n=9), cut immediately after RGA turned downward from maximum, 144 h after cutting) was 0, the “Number of planarians determined” value (Group C (n=9), cut immediately after RGA turned downward from maximum, 168 h after cutting) was 0 and the “Number of planarians determined” value (Group C (n=9), cut immediately after RGA turned downward from maximum, 192 h after cutting) was 0. The “Number of planarians determined” value (Group C (n=9), cut immediately after RGA turned downward from maximum, 216 h after cutting) was 1, the “Number of planarians determined” value (Group C (n=9), cut immediately after RGA turned downward from maximum, 240 h after cutting) was 2 and the “Number of planarians determined” value (Group C (n=9), cut immediately after RGA turned downward from maximum, 264 h after cutting) was 2. For the same compound, the “Number of planarians determined” value (Group C (n=9), cut immediately after RGA turned downward from maximum, 288 h after cutting) was 3, the “Number of planarians determined” value (Group C (n=9), cut immediately after RGA turned downward from maximum, 312 h after cutting) was 4 and the “Number of planarians determined” value (Group C (n=9), cut immediately after RGA turned downward from maximum, 336 h after cutting) was 4. For the same compound, the “Number of planarians determined” value (Group C (n=9), cut immediately after RGA turned downward from maximum, 360 h after cutting) was 5, the “individuals died and disappeared before regeneration” value (Group C, cut immediately after RGA turned downward) was “four” and the “Number of planarians determined” value (Group D (n=9), cut immediately after RGA turned upward from minimum, 0 h after cutting) was 0. The “Number of planarians determined” value (Group D (n=9), cut immediately after RGA turned upward from minimum, 24 h after cutting) was 0, the “Number of planarians determined” value (Group D (n=9), cut immediately after RGA turned upward from minimum, 48 h after cutting) was 0 and the “Number of planarians determined” value (Group D (n=9), cut immediately after RGA turned upward from minimum, 72 h after cutting) was 0. For the same compound, the “Number of planarians determined” value (Group D (n=9), cut immediately after RGA turned upward from minimum, 96 h after cutting) was 0, the “Number of planarians determined” value (Group D (n=9), cut immediately after RGA turned upward from minimum, 120 h after cutting) was 0 and the “Number of planarians determined” value (Group D (n=9), cut immediately after RGA turned upward from minimum, 144 h after cutting) was 0. The “Number of planarians determined” value (Group D (n=9), cut immediately after RGA turned upward from minimum, 168 h after cutting) was 0, the “Number of planarians determined” value (Group D (n=9), cut immediately after RGA turned upward from minimum, 192 h after cutting) was 0 and the “Number of planarians determined” value (Group D (n=9), cut immediately after RGA turned upward from minimum, 216 h after cutting) was 0. The “Number of planarians determined” value (Group D (n=9), cut immediately after RGA turned upward from minimum, 240 h after cutting) was 6, the “Number of planarians determined” value (Group D (n=9), cut immediately after RGA turned upward from minimum, 264 h after cutting) was 6 and the “Number of planarians determined” value (Group D (n=9), cut immediately after RGA turned upward from minimum, 288 h after cutting) was 6. The “Number of planarians determined” value (Group D (n=9), cut immediately after RGA turned upward from minimum, 312 h after cutting) was 6, the “Number of planarians determined” value (Group D (n=9), cut immediately after RGA turned upward from minimum, 336 h after cutting) was 6 and the “Number of planarians determined” value (Group D (n=9), cut immediately after RGA turned upward from minimum, 360 h after cutting) was 6. The “individuals died and disappeared before regeneration” value (Group D, cut immediately after RGA turned upward) was “three”.

From US20170107482A1, “ANIMAL CELL REGENERATION SPEED CONTROLLING METHOD AND ANIMAL CELL REGENERATION SPEED CONTROLLER” (TOYOTA BOSHOKU KABUSHIKI KAISHA, priority 2015, published 2017)
